Data reported in patent US12264164B2, “Method of treatment of symptoms of menopause” (KaNDy Therapeutics Limited, priority 2018, dated 2025).

Tested on: post-menopausal women experiencing moderate to severe vasomotor symptoms
Experiment: Efficacy assessments in the Phase 1b/2 study
Assay type: in vivo, human
Details: hard gelatin drug product, 150 mg once daily (three 50 mg capsules), doses tested 50-300 mg for 14 days
Description: There were 13 or 15 subjects per dose group.
Repeat once-a-day dosing of 150 mg Compound A gave a geometric mean exposure AUC0-24 5164 ng.hr/mL of the drug at Day 14.

Q: With `Cc1cc(F)ccc1-c1cc(N2C[C@H]3COCCN3C[C@H]2CO)ncc1N(C)C(=O)C(C)(C)c1cc(C(F)(F)F)cc(C(F)(F)F)c1` [Compound A, 2-[3,5-Bis(trifluoromethyl)phenyl]-N-{4-(4-fluoro-2-methylphenyl)-6-[(7S,9aS)-7-(hydroxymethyl)hexahydropyrazino[2,1-c][1,4]oxazin-8(1H)-yl]-3-pyridinyl}-N,2-dimethylpropanamide] as the molecule, how does the efficacy assessments read?
A: maximum efficacy
